pIC50: −log10 of the molar value. Where a name gives a salt, the structure may show the parent alone. Read-outs that look alike come from different tables or passages of the source.
What was measured:
[1] = molecular target: T1, dopamine (DA) reuptake in synaptosomes (Rattus norvegicus, UniProt P23977); test: In vitro inhibition of dopamine (DA) reuptake in synaptosomes; type: biochemical
T1 construct: in synaptosomes as described in WO 97/16451; from tissue

[2] = molecular target: T2, noradrenaline (NA) reuptake in synaptosomes (Rattus norvegicus, UniProt Q63380); test: In vitro inhibition of noradrenaline (NA) reuptake in synaptosomes; type: biochemical
T2 construct: in synaptosomes as described in WO 97/16451; from tissue

[3] = molecular target: T3, serotonine (5-HT) reuptake in synaptosomes (Rattus norvegicus, UniProt P31652); test: In vitro inhibition of serotonine (5-HT) reuptake in synaptosomes; type: biochemical
T3 construct: in synaptosomes as described in WO 97/16451; from tissue
Procedure: A number of compounds were tested for their ability to inhibit the reuptake of the monoamine neurotransmitters dopamine (DA) noradrenaline (NA) and serotonine (5-HT) in synaptosomes as described in WO 97/16451.
The test values are given as IC50 (the concentration (μM) of the test substance which inhibits the specific binding of ^3H-DA, ^3H-NA, or ^3H-5-HT by 50%).

[4] = synaptosomes, 3H-DA, read-out: DA-uptake IC50
[5] = synaptosomes, 3H-NA, read-out: NA-uptake IC50

T3 sequence (P31652 whole entry): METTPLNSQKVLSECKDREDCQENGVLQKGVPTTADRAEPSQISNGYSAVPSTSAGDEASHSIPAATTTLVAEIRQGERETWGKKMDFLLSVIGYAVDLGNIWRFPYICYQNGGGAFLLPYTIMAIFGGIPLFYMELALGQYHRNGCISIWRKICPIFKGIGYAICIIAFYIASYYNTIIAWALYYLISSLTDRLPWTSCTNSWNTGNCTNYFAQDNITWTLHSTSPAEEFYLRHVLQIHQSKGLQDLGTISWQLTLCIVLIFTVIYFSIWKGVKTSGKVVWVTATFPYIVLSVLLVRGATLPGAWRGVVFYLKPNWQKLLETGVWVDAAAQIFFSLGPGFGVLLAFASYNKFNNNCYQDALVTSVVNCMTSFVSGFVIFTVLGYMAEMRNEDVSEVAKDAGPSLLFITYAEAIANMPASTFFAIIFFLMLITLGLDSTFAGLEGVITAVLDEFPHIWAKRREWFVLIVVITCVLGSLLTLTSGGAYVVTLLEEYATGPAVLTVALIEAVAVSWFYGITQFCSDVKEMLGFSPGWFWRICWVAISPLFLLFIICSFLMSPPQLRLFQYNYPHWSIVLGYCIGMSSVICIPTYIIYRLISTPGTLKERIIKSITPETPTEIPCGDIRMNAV
T2 sequence (Q63380 1-617): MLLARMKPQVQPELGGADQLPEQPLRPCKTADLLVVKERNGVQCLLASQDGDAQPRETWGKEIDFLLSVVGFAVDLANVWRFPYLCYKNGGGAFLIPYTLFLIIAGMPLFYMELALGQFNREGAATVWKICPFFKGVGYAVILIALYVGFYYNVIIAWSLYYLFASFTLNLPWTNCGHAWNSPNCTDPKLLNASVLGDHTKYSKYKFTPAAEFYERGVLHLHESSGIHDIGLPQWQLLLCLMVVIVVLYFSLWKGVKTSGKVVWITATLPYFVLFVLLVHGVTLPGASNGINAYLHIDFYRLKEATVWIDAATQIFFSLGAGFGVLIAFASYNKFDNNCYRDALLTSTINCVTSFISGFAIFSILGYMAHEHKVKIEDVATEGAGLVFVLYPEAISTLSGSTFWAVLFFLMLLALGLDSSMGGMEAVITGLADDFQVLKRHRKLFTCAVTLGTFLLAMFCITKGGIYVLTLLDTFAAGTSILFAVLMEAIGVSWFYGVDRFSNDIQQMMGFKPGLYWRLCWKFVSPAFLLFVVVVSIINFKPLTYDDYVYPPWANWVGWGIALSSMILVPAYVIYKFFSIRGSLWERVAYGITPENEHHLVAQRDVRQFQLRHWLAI
T1 sequence (P23977 whole entry): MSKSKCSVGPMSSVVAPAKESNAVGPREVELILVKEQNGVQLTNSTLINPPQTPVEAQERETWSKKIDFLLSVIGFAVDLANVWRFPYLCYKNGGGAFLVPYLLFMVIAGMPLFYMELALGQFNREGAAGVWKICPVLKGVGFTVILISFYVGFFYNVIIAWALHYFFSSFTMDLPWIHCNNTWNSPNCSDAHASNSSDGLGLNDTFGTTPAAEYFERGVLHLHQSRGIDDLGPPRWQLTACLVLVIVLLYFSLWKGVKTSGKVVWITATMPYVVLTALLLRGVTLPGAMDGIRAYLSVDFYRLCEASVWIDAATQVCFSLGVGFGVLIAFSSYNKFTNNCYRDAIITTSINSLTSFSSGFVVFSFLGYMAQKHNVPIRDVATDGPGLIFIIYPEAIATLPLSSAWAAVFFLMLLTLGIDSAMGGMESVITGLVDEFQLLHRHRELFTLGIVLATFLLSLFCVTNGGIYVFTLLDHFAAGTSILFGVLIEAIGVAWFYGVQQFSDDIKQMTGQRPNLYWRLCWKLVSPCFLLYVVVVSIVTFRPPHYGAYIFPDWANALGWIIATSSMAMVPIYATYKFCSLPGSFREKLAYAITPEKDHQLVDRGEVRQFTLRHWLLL

For `CN1C2CCC1CN(c1ccc3ccccc3n1)C2` (as salt: fumaric acid salt) [2nd compound of method A, 2-(8-Methyl-3,8-diaza-bicyclo[3.2.1]oct-3-yl)-quinoline], the melting point was 210 to 212 °C.
`CN1C2CCC1CN(c1ccc3ccccc3n1)C2` [2nd compound of method A, 2-(8-Methyl-3,8-diaza-bicyclo[3.2.1]oct-3-yl)-quinoline] showed a pIC50 [1, 4] of 5.80, a pIC50 [2, 5] of 6.35 and a pIC50 [3] of 7.80.
With `COc1ccc2cc(N3CC4CCC(C3)N4C)ccc2c1` [1st compound of method B, 3-(6-Methoxy-naphthalen-2-yl)-8-methyl-3,8-diaza-bicyclo[3.2.1]octane] the pIC50 [1] was 7.25, the pIC50 [2] was 7.70 and the pIC50 ([3]; synaptosomes, 3H-5-HT, read-out: 5-HT-uptake IC50) was 7.70.
Work on `CN1C2CCC1CN(c1ccc3cc([N+](=O)[O-])ccc3n1)C2` [1st compound of method A, 2-(8-Methyl-3,8-diaza-bicyclo[3.2.1]oct-3-yl)-6-nitro-quinoline] yielded a pIC50 [1, 4] of 4.80, a pIC50 [2, 5] of 5.34 and a pIC50 [3] of 8.51. The melting point was 152.1 to 154.5 °C.
Work on `COc1ccc2cc(N3CC4CCC(C3)N4C)ccc2c1` (as salt: fumaric acid salt) [1st compound of method B, 3-(6-Methoxy-naphthalen-2-yl)-8-methyl-3,8-diaza-bicyclo[3.2.1]octane] yielded a melting point of 204 to 206 °C.
